Experimental data taken from patent US5216142A, “Anti-virals” (Efamol Holdings plc, priority 1989, dated 1993).
Converted amounts (≈) assume the structure as drawn. “Also recorded” adds a separate entry of the source. Like-named read-outs stand apart in the source and are kept apart here.

Legend:
[1] = test system: herpes simplex virus Type I; test: Inactivation of virus (30 minutes incubation, plaque assay); format: cell-based, Type 1, Troisbel strain; details: for Virus titre (inactivation of virus): 30 minutes, control 5.4 × 10^4 (GLA-alcohol), 4.5 × 10^4 (GLA-AZT); for log reduction at 1 µg/mL / log reduction at 5 µg/mL: Human alphaherpesvirus 1, 0.5 h, read-out: Inactivation of virus (log10 reduction in virus titre); for log reduction at 1 µg/mL: 1 mg/l; for log reduction at 5 µg/mL: 5 mg/l
Experimental: 1. A virus solution containing 2×10^5 pfu/ml is prepared in phosphate buffered saline (Dulbecco's A).
2. The compound to be tested is made up in Dulbecco's medium A in a suitable range of dilutions.
3. Equal volumes of the virus and drug solution are mixed together. Control solutions without drug are also used.
4. The virus and drug are incubated for an appropriate period of time, in this example, thirty minutes.
5. The numbers of active viral particles in the solution are assayed as in items 4 and 5 under A.
The results are shown below (Table 6). In the Table, the figures are concentrations of viral particles present after incubation of the virus for 30 minutes with solutions of the drugs.

[2] = test system: herpes simplex virus Type I (HSV I); test: Inhibition of virus replication (plaque assay, BHK-21 cells); format: cell-based, Type 1, Troisbel strain
Experimental: 1. Mono-layers of baby hamster kidney cells (BHK-21) are prepared in Petri dishes containing ETC medium (Eagle's minimal essential medium +10% tryptose phosphate broth +10% new born calf serum).
2. After incubation the medium is poured off to leave the layer of cells attached to the Petri dish. A solution containing virus, specifically herpes simplex virus Type I (HSV I) for example, in ETC medium is then added to the dish and incubated with intermittent rocking for one hour to allow the virus to adsorb to the cells of the mono-layer. Unadsorbed virus is then removed by pouring off the virus-containing medium and washing twice with new sterile medium. Then new medium is added to each Petri dish. At this stage various concentrations of drug can be added to the medium.
3. […] First the dishes are frozen to -70° C. and thawed to disrupt the mono-layer and break up the cells. Then the medium and the disrupted cells are transferred to bijou bottles and sonicated to break down the cells completely and to release all the virus particles the cells contain. The sonicated medium is then diluted with fresh sterile ETC medium to give concentrations of the original Petri dish fluid of 10^-2, 10^-4, 10^-6 and 10^-8.
4. The number of virus particles (plaque forming units) in the dilutions is then assayed. A standard number of BHK cells (usually 8×10^6) is added to 2 ml of the diluted solutions and incubated for one hour, with cautious, gentle shaking, and 8 ml of Eagle's minimal essential medium +2% new born calf serum + carboxymethyl cellulose is then added to the cell suspension. This medium has gelling properties which prevent spreading of the virus through the medium and which encourage the formation of discrete plaques in cell mono-layers. The medium from each dilution is then dispensed into Petri dishes and incubated for two to three days.
5. The number of plaques formed is then counted and the amount of active virus expressed as the number of plaque forming units (pfus) as follows. The medium is poured off and the cell mono-layer is fixed using 10% formol saline and stained with dilute carbol fuchsin. The number of plaques in each Petri dish is counted. Based on the dilutions, the number of plaque forming virus particles in the original solutions is calculated.
In the Table, the figures are the concentration of viral particles in pfu/ml present in the cells + medium at the end of the replication stage (3).

MT-4 cells = test: in vitro; format: cell-based; details: human, 120 h
Experimental: (§1) Results in relation to HIV virus were obtained by the method of Pauwels et al, Journal of Virological Methods 20, 309 to 321 (1988), as follows:
(§2) MT-4 cells (2.5×10^4 /well) were infected with HIV (100 CCID50) and incubated in the presence of varying concentrations of the test compounds (added immediately after virus infection). After five days incubation at 37° C. in a CO2 incubator, the number of viable cells was assessed by the MTT (tetrazolium) method. Anti-viral activity and cytotoxicity of the compounds are expressed as ED50 (50% effective dose) and CD50 (50% cytotoxic dose), respectively. SI (selectivity index=CD50 /ED50.

in vitro = format: cell-based; details: human, mt-4 cells, CD50 (50% cytotoxic dose)
Experimental: as §1, §2

HTLV-IIIB = test: Anti-HIV activity assay, HTLV-IIIB (MT-4 cells, MTT method); format: cell-based; details: for Selectivity index (SI): CD50/ED50, HTLV-IIIB; for EC50: Human immunodeficiency virus 1, MT4, 120 h, MT-4 cells, five days, HTLV-IIIB, read-out: ED50 (50% effective dose)
Experimental: as §1, §2
(§3) These are given in Table 8 and Table 9 below in relation to HTLV-IIIB and LAV-2ROD viruses.

LAV-2ROD = test: Anti-HIV activity assay, LAV-2ROD (MT-4 cells, MTT method); format: cell-based; details: for Selectivity index (SI): CD50/ED50, LAV-2ROD; for EC50: MT4, 120 h, MT-4 cells, five days, LAV-2ROD, read-out: ED50 (50% effective dose)
Experimental: as §1, §2, §3

| SMILES | Virucidal activity / inactivation of herpes virus (in words) [1] | Inhibition of herpes virus replication (in words) [2] | CD50 (50% cytotoxic dose) (MT-4 cells) [µg/mL] | CC50 at 120 h (in vitro) [µg/mL] | Selectivity index (SI) (HTLV-IIIB) | EC50 (HTLV-IIIB) [µg/mL] | Selectivity index (SI) (LAV-2ROD) | EC50 (LAV-2ROD) [µg/mL] | Virus titre (inactivation of virus) ([1]; 5 μg/ml) | Virus titre (inactivation of virus) ([1]; 10 μg/ml) | Virus titre (inactivation of virus) ([1]; 25 μg/ml) | log reduction at 1 µg/mL [1] | log reduction at 5 µg/mL [1] | % in chloroform phase (partition co-efficients, water/chloroform) [%] | log reduction at 1 µg/mL ([2]; Human alphaherpesvirus 1, BHK-21, 24 h, 1 mg/l, read-out: Inhibition of viral replication (log10 reduction in virus titre)) | log reduction at 5 µg/mL ([2]; Human alphaherpesvirus 1, BHK-21, 24 h, 5 mg/l, read-out: Inhibition of viral replication (log10 reduction in virus titre)) | Virucidal activity / inactivation of herpes virus (in words) ([1]; listed as AZT-LA) | Inhibition of viral replication (in words) ([2]; up to 100 mg/l) |
| --- | --- | --- | --- | --- | --- | --- | --- | --- | --- | --- | --- | --- | --- | --- | --- | --- | --- | --- |
| CCCCC/C=C\C/C=C\CCCCCCCC(=O)O [LA, linoleic acid, reference compound] | active at concentrations comparable to GLA; also recorded: same effect in inactivating the herpes virus | completely unable to inhibit viral replication | – | – | – | – | – | – | – | – | – | – | – | – | – | – | – | – |
| CCCCC/C=C\C/C=C\C/C=C\CCCCC(=O)OC[C@@H]1C=C[C@H](n2cc(C)c(=O)[nH]c2=O)O1 [AK 14] | – | – | 8.84 | 10.3 (≈ 21.2 µM) | 134 | 0.076 (≈ 0.157 µM) | 110 | 0.08 (≈ 0.165 µM) | – | – | – | – | – | – | – | – | – | – |
| Cc1cn([C@H]2C=C[C@@H](CO)O2)c(=O)[nH]c1=O [AK 16, dideoxy-didehydro thymidine, reference compound] | – | – | 46.65 | 44.4 (≈ 198 µM) | 574 | 0.077 (≈ 0.343 µM) | 1196 | 0.039 (≈ 0.174 µM) | – | – | – | – | – | – | – | – | – | – |
| CCCCC/C=C\C/C=C\C/C=C\CCCCCO [GLA alcohol, reference compound] | able to inactivate the herpes simplex virus | no effect at all | – | – | – | – | – | – | 3.0 × 10^3 | 2.2 × 10^2 | < 1.0 × 10^2 | – | – | – | – | – | – | – |
| CCCCC/C=C\C/C=C\CCCCCCCC(=O)Nc1nc2c(ncn2COCCOC(=O)CCCCCCC/C=C\C/C=C\CCCCC)c(=O)[nH]1 [AK 11] | virucidal; also recorded: very effective | very effective | 10.1674 | 13.1 (≈ 17.5 µM) | < 1 | > 40 | < 1 | > 40 | – | – | – | 0.15 | 1.55 | > 99 | 1.69 | 2.46 | – | – |
| CCCCC/C=C\C/C=C\CCCCCCCC(=O)OC[C@H]1O[C@@H](n2cc(C)c(=O)[nH]c2=O)C[C@@H]1N=[N+]=[N-] [AK 2] | virucidal | to inhibit its replication | 5.9512 | 9.49 (≈ 17.9 µM) | 26008 | 0.000365 (≈ 0.000689 µM) | 7999 | 0.000744 (≈ 0.0014 µM) | – | – | – | 2.2 | 2.8 | > 99 | – | – | able both to inactivate the herpes virus | no inhibition |
